These are literature values, as cited in paper PMC8131289, “Direct Comparison of the Prediction of the Unbound Brain-to-Plasma Partitioning Utilizing Machine Learning Approach and Mechanistic Neuropharmacokinetic Model” (The AAPS Journal, 2021).

Where two headings read alike, the source gives them in different places.

The conditions of data set [1]: external dataset.
Data set [2] has as its target T1, BCRP (Homo sapiens, UniProt Q9UNQ0).
T1 sequence (Q9UNQ0 1-655): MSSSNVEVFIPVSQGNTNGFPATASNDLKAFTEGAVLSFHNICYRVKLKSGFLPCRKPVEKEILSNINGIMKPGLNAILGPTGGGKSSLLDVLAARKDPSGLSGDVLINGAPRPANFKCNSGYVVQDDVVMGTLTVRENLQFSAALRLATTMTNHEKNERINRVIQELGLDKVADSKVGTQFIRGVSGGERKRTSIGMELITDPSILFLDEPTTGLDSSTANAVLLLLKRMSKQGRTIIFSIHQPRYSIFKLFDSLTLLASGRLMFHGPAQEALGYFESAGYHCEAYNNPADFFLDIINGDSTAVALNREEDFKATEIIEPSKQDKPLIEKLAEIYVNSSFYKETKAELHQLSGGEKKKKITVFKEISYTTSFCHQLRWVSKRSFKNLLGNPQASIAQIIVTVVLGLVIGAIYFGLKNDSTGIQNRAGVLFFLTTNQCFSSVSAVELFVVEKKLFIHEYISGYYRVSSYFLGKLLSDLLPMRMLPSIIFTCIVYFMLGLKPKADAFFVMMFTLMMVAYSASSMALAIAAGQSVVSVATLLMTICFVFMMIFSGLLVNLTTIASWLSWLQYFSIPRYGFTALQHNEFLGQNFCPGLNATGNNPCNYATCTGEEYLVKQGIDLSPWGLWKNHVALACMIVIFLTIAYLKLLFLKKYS

Data set [3] has as its target MDR1 (Homo sapiens, UniProt P08183).
Where [4] appears, read: MDCK-BCRP cells, external dataset, ref (17).
The mark [5] stands for this setting: MDCK-MDR1 cells, external dataset, ref (17).

MDR1, sequence (P08183 whole entry): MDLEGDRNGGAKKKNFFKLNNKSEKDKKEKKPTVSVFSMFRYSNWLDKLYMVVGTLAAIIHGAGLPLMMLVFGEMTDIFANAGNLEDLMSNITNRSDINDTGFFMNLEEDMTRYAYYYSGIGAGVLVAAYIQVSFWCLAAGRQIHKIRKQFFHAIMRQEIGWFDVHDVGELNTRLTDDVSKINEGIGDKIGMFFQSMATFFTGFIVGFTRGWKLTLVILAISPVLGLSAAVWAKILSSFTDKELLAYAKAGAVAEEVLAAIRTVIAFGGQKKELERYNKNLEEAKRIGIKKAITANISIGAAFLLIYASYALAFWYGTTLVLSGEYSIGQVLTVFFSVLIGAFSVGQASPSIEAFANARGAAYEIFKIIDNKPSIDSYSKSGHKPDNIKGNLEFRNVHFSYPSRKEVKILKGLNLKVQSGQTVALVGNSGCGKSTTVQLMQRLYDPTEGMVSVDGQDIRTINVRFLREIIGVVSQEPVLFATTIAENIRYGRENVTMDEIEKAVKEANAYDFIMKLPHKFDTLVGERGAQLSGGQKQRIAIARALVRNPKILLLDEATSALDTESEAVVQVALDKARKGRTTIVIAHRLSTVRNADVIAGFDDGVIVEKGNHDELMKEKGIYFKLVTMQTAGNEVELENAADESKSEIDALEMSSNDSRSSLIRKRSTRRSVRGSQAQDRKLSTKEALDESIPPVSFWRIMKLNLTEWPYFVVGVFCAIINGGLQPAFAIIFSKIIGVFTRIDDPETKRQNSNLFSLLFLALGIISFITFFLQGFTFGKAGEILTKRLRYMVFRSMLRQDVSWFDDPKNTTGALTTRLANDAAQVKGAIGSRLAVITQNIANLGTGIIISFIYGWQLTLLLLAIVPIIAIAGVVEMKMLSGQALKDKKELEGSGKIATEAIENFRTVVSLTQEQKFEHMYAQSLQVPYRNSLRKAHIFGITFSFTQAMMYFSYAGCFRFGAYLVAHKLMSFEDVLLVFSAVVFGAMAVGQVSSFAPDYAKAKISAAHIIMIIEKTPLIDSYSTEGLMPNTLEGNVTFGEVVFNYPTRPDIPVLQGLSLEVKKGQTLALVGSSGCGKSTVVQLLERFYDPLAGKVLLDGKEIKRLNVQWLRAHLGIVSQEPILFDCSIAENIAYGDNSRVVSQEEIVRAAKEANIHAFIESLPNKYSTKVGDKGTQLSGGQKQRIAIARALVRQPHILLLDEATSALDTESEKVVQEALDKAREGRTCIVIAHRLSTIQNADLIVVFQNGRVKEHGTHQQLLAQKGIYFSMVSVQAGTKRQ

With `COc1ccc(C(CN(C)C)C2(O)CCCCC2)cc1` (centres unmarked) [Venlafaxine], the “Kp,uu,brain” value in data set [1] (ref (30)) is 1.07.
In the case of `COc1ccc2c(c1)c(CC(=O)O)c(C)n2C(=O)c1ccc(Cl)cc1` [Indomethacin], the “Efflux ratio BCRP” value in data set [2] (setting [4]) was 20. In addition, the “Efflux ratio MDR1” value in data set [3] (setting [5]) was 4.4.
For the compound `CN(C)C(=O)C(CCN1CCC(O)(c2ccc(Cl)cc2)CC1)(c1ccccc1)c1ccccc1` [Loperamide], the “Kp,uu,brain” value in data set [1] (ref (30)) is given as 0.0244.
Take `CNCCC(Oc1ccc(C(F)(F)F)cc1)c1ccccc1` (centres unmarked) [Fluoxetine]: the “Kp,uu,brain” value in data set [1] (ref (30)) was 2.14.
Take `C#Cc1cccc(Nc2ncnc3cc(OCCOC)c(OCCOC)cc23)c1` [Erlotinib]: the “Kp,uu,brain” value in data set [1] (ref (17)) was 0.0614.
`Cc1cc(=O)n(-c2ccccc2)n1C` [Antipyrine]: in data set [2], the “Efflux ratio BCRP” value is reported as 0.96. In data set [3] (MDCK-MDR1), the “Efflux ratio MDR1” value was 0.91.
With `NC(=O)N1c2ccccc2C=Cc2ccccc21` [Carbamazepine], the “Kp,uu,brain” value in data set [1] (ref (30)) was 0.389. Moreover, the “Efflux ratio BCRP” value in data set [2] (setting [4]) is 0.88. The “Efflux ratio MDR1” value in data set [3] (setting [5]) is on record as 1.26.
Turning to `CN[C@H]1CC[C@@H](c2ccc(Cl)c(Cl)c2)c2ccccc21` [Sertraline], the “Efflux ratio MDR1” value in data set [3] (setting [5]) is 0.46.
For the compound `CC(NC(C)(C)C)C(=O)c1cccc(Cl)c1` (centres unmarked) [Bupropion], the “Efflux ratio BCRP” value in data set [2] (setting [4]) is reported as 0.80. In addition, the “Efflux ratio MDR1” value in data set [3] (setting [5]) was 1.2.
Regarding `CN1CCN2c3ncccc3Cc3ccccc3C2C1` (centres unmarked) [Mirtazapine], the “Kp,uu,brain” value in data set [1] (ref (30)) was 1.61.
As to `CN(Cc1cnc2nc(N)nc(N)c2n1)c1ccc(C(=O)N[C@@H](CCC(=O)O)C(=O)O)cc1` [Methotrexate], in data set [3] (setting [5]), the “Efflux ratio MDR1” value is reported as 1.42.
For the compound `CC(C)NCC(O)COc1cccc2[nH]ccc12` (centres unmarked) [Pindolol], in data set [3] (setting [5]), the “Efflux ratio MDR1” value is 5.4.
For the compound `CSc1ccc2c(c1)N(CCC1CCCCN1C)c1ccccc1S2` (centres unmarked) [Thioridazine], the “Kp,uu,brain” value in data set [1] (ref (30)) is 1.43. In addition, the “Efflux ratio BCRP” value in data set [2] (setting [4]) is on record as 0.57. Besides, in data set [3] (setting [5]), the “Efflux ratio MDR1” value was 2.6.
